The source of these data is PMC8196580, “Identification of Kaurane-Type Diterpenes as Inhibitors of Leishmania Pteridine Reductase I” (Molecules, 2021).

One test concerns L6 cells. More on the design: method as in earlier work. Conditions: in comparison with L6 cells; ref 27 (Nogueira et al.); cited from earlier work.
A further test relates to Leishmania donovani. More on the design: method as in earlier work. Particulars: in vitro, ref 27 (Nogueira et al.); cited from earlier work.
Another test deals with Plasmodium falciparum. Also on record: method as in earlier work. Particulars: in vitro, ref 27 (Nogueira et al.); cited from earlier work.
The next test addresses T1, LmPTR1 (Leishmania major, UniProt Q01782).
T1 construct: made in house
T1 sequence (Q01782 1-288): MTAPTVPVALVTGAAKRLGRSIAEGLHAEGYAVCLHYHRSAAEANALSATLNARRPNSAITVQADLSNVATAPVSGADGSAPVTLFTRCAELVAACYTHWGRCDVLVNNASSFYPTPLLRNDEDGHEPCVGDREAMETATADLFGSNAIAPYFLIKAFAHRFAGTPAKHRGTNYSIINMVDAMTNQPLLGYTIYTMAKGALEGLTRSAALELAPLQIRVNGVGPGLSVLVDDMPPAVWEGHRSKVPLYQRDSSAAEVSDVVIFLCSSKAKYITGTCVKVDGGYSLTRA
Nature of the test: LmPTR1 enzyme inhibition assay (spectrophotometric, NADPH oxidation at 340 nm). Type of test: biochemical. Conditions: for Ki: read-out: Ki^app; for IC50: recombinant LmPTR1, DHB 20 µM, NADPH 250 µM, pH 6.0, 30 °C, 0.1–128 µM, read-out: IC50. The method, then: The selected synthetic diterpene esters 135, 301, 302, 301a, and 302a were tested in vitro to experimentally determine their abilities to inhibit the enzymatic activity of LmPTR1 as an extension of the results provided by the in silico screening. […] The IC50 was then calculated for the tested diterpenes, and these values were used to calculate the apparent inhibitory constant (Ki^app) (Table 3) using the Cheng–Prusoff equation, assuming reversible competitive inhibition and 1:1 stoichiometry. PMA, a known PTR1 inhibitor, was used as a positive control. […] Therefore, a reasonable inference based on this small set of compounds is that the presence of a p-hydroxyl group at the phenylpropanoid moiety might favor inhibitory activity, whereas a 9β-hydroxyl group at the diterpene moiety has a negative influence on LmPTR1 inhibition.
Recombinant LmPTR1 enzyme was obtained, purified, and kinetically characterized, as reported previously. The in vitro assessment of selected diterpenes (i.e., 135, 301, 302, 301a, and 302a) for LmPTR1 inhibitory activity was performed through the spectrophotometric monitoring of the enzymatic activity under balanced conditions: LmPTR1 (30 µg), 7,8-dihydro-L-biopterin (DHB, 20 µM), sodium citrate buffer (20 mM, pH 6.0), 30 °C, and a final assay volume of 600 µL. Each reaction was started by the addition of 250 µM NADPH. Absorbance was monitored at 340 nm (i.e., oxidation of NADPH to NADP+) for 240 s, and the resulting profile was used to measure the initial reaction rate (IRR) through the respective slope by linear regression. All recordings were performed in triplicate. PMA was used as the positive control. The resulting IRR values were used to calculate the % inhibition, as 100 − (Ri/Rc × 100), where Ri is the IRR in the presence of the inhibitor and Rc is the IRR in the absence of inhibitors (1% DMSO v/v final concentration). The % inhibition for at least five concentrations (range: 0.1–128 µM) for each test compound (diterpenes and PMA) were calculated, and concentration-response curves (% inhibition vs. Log[inhibitor]) were obtained by non-linear regression to determine the IC50 using GraphPad Prism 5.0 (GraphPad, San Diego, CA, USA). Finally, Ki^app values were calculated using the Cheng–Prusoff equation for competitive inhibition, assuming a 1:1 stoichiometry and that the inhibitor-binding reactions are reversible: Ki^app = IC50/(1 + [S]/Km), where [S] is the substrate (DHB) concentration and Km is the Michaelis constant. The substrate Km was calculated during the kinetic characterization of purified, recombinant LmPTR1.

A word on the IC50: it is the concentration that gives 50% inhibition. As to `C=C1C[C@@]23CC[C@@H]4[C@](C)(CO)[C@H](O)CC[C@@]4(C)[C@@H]2CC[C@@H]1C3` (single isomer, unassigned; ent-3) [ent-3-α-hydroxy-kaur-16-en-18-ol], the “Selectivity index, SI” value in the test with L6 cells is > 10. Further, the values for the IC50 in the test on Leishmania donovani and in the test with Plasmodium falciparum were 2.5 µM and 3.5 µM, respectively.

On to `C=C1C[C@@]23CC[C@@H]4[C@](C)(C(=O)O[C@H]5C=C(C)[C@@H](O)C[C@@H]5C(C)C)CCC[C@@]4(C)C2CC[C@@H]1C3` (stereo partly drawn) [compound 135, 2β-hydroxy-menth-6-en-5β-yl ent-kaurenoate], for which, at LmPTR1, the Ki worked out at 1.88 µM and the IC50 was 8.6 µM.

As for `C=C1C[C@@]23CCC4[C@](C)(C(=O)O)[C@H](OC(=O)/C=C/c5ccccc5)CC[C@@]4(C)[C@]2(O)CC[C@@H]1C3` (stereo partly drawn) [compound 301, 3α-Cinnamoyloxy-9β-hydroxy-ent-kaur-16-en-19-oic Acid], at LmPTR1, the Ki was found to be 4.64 µM and the IC50 turned out to be 21.2 µM.

As for `C=C1C[C@@]23CCC4[C@](C)(C(=O)O)[C@H](OC(=O)/C=C/c5ccccc5)CC[C@@]4(C)[C@@H]2CC[C@@H]1C3` (stereo partly drawn) [compound 302, 3α-cinnamoyloxy-ent-kaur-16-en-19-oic acid], on LmPTR1, the Ki is 2.1 µM and the IC50 worked out at 9.6 µM.
